Literature values, collected in patent US20210228671A1, “EXTRACT OF VEGETATION WATERS FOR USE IN THE TREATMENT AND/OR IN THE PREVENTION OF PROSTATE CANCER” (FATTORIA LA VIALLA DI GIANNI, ANTONIO E BANDINO LO FRANCO - …, priority 2018, published 2021).

Conditions: high concentrations, up to 250-500 mg/kg/day

OCCc1ccc(O)c(O)c1 [hydroxytyrosol]
toxic effect of in vivo administration: does not exert any toxic effect
